Measurements: patent US20140066462A1, “TREATMENT OF POLYCYSTIC DISEASE” (Intellikine LLC, priority 2011, published 2014)

Tests used:
cellular proliferation = experiment: inhibition of cellular proliferation; assay type: cell-based
mTOR1/2 signaling = experiment: Western blot of kidney crude lysates of treated PKD(V/V) mice; assay type: in vivo; conditions: 0.5 mg/kg p.o., kidney lysates 2 hours later
Procedure: (§1) In order to study mechanisms of selective intervention for treating PKD, PKD(V/V) (“V/V”) mice were used. V/V mice are an animal model of PKD which are homozygous for a mutation in PKD 1 (the gene implicated in 85% of PKD). (Yu S, et al. Proc. Natl. Acad. Sci. U.S.A. 2007; 104: 18688-18693.) These mice develop severe PKD rapidly during the postnatal period. P11 V/V mice were treated with Compound A (0.5 mg/kg; “+”) or vehicle (“−”) p.o. Animals were sacrificed 2 hours later and kidney crude lysates were prepared and subjected to Western blot analysis.
Whole kidneys were isolated from mice and immediately flash frozen. Tissues were ground using a mortar and pestle under a blanket of liquid nitrogen followed by homogenization in lysis buffer. Supernatants were loaded in gels and proteins were separated via electrophoresis. Primary antibodies were used to assess the following proteins: p-Akt (S473), p-Akt (T308), total-Akt, p-4E-BP1, total-4E-BP1, p-S6 ribosomal protein, and total-S6 ribosomal protein.

PI3K (α, β, γ, and δ) = experiment: selectivity of kinase inhibition, mTOR versus PI3K; assay type: biochemical; conditions: selectivity mTOR over PI3K α
mTOR kinase domain = mTOR kinase domain (Homo sapiens, UniProt P42345); experiment: in vitro mTOR kinase assay (γ-32P-ATP, purified kinase domain); assay type: biochemical; conditions: 10 μM ATP
Chain of mTOR kinase domain (P42345 2156-2469 limits assumed, species assumed): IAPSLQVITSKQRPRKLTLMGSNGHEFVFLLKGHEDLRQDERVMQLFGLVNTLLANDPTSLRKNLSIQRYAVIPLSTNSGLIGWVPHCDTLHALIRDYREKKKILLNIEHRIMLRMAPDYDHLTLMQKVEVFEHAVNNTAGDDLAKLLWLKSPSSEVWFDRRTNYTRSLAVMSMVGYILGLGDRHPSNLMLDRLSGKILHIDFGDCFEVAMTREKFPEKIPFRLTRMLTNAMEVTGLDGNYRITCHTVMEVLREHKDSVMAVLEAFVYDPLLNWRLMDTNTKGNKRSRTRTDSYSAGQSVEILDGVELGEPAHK
Procedure: Purified mTOR kinase domain was incubated with inhibitors at 2- or 4-fold dilutions over a concentration range of 50-0.001 μM or with vehicle (0.1% DMSO) in the presence of 10 μM ATP, 2.5 μCi of γ-32P-ATP and substrate. Reactions were terminated by spotting onto nitrocellulose or phosphocellulose membranes, depending on the substrate; this membrane was then washed 5-6 times to remove unbound radioactivity and dried. Transferred radioactivity was quantified by phosphorimaging and IC50 values were calculated by fitting the data to a sigmoidal dose-response using Prism software.

PKD(V/V) mice [1] = experiment: body and kidney mass in PKD(V/V) mice treated P5-P11; assay type: in vivo
Procedure: as §1
(§2) To examine Compound A effects on kidney size in V/V mice, V/V mice were treated from P5-P11 with either vehicle or Compound A. Compound A dosing was 0.25 mg/kg on P5/P6, then 0.25 mg/kg bid on P7/P8, then 0.5 mg/kg bid on P9-11. Animals were sacrificed 2 hours after […] dose; kidneys were weighed, and one kidney was subjected to western blot and one to sectioning for histology.

PKD(V/V) mice [2] = experiment: kidney histology (H&E sections) in PKD(V/V) mice treated P5-P11; assay type: in vivo; conditions: P5-P11 dosing
Procedure: as §2
Sagittal sections of the left kidney from mice treated with vehicle or Compound A were fixed, embedded in paraffin, and sectioned for histological analysis as described in Piontek K B, et. al, (2004) J Am Soc Nephrol 15:3035-33043. Sections were stained with H&E at observed with a microscope at 4×, […], 20×, and 40× magnification. (FIGS. 6-9) Cyst volume was lower and parenchyma was increased in Compound A-treated mice, quantitated using ImageJ software. The number of glomeruli was increased in the Compound A treated section as compared to the vehicle treated section. […] (FIG. 9)

[3] = left kidney sagittal sections, ImageJ

more effective in inhibiting mTOR activity than that of PI3K (α, β, γ, and δ) (PI3K (α, β, γ, and δ))	IC50 (mTOR kinase domain) [nM]	Body mass in mutant and in Het/WT mice (PKD(V/V) mice [1]; P5-P11, 0.25 mg/kg P5/P6, 0.25 mg/kg bid P7/P8, 0.5 mg/kg bid P9-11, p<0.05)	Compound	IC50 (cellular proliferation) [nM]	Baseline phosphorylation of S6 in wt and mutant mice (mTOR1/2 signaling)	S6-RP expression (mTOR1/2 signaling)	Akt S473 and T308 phosphorylation (mTOR1/2 signaling; P11 V/V mice)	Total Akt (mTOR1/2 signaling; P11 V/V mice)	p4E-BP1 in mutant mice (mTOR1/2 signaling; P11 V/V mice)	pS6-RP in mutant mice (mTOR1/2 signaling; P11 V/V mice)	Baseline phosphorylation and expression of 4E-BP1 in wt mice (mTOR1/2 signaling; wt mice)	kidney mass in Het/WT (PKD(V/V) mice [1]; Het/WT mice, P5-P11 dosing, p=0.22)	normalized kidney mass in Het/WT mice (PKD(V/V) mice [1]; Het/WT mice, P5-P11 dosing, p=0.5)	Average kidney mass, compared to vehicle treated mutants (PKD(V/V) mice [1]; V/V mutants, P5-P11 dosing, p=0.007)	Normalized kidney mass (combined kidney weight/body weight), compared with vehicle-treated mutants (PKD(V/V) mice [1]; V/V mutants, P5-P11 dosing, p=0.01)	number of glomeruli, compared to the vehicle treated section (PKD(V/V) mice [2]; 20× magnification)	appearance of the glomeruli, compared to the untreated kidney (PKD(V/V) mice [2]; 40× magnification)	Cyst volume (PKD(V/V) mice [2]; [3])	parenchyma (PKD(V/V) mice [2]; [3])
over 1000 ×	< 100	decreased	CC(C)(CO)n1nc(-c2ccc3oc(N)nc3c2)c2c(N)ncnc21 [Compound A]	10 to 100	markedly attenuated	relatively unaffected	moderately attenuated	unaffected	markedly inhibited	markedly inhibited	markedly attenuated	not significantly changed	no significant effect	significantly lower	significantly lower	increased	appeared normal	lower	increased
–	< 100	–	CC(CO)n1nc(-c2ccc3oc(N)nc3c2)c2c(N)ncnc21 (stereo not drawn) [Compound B]	–	–	–	–	–	–	–	–	–	–	–	–	–	–	–	–
–	< 100	–	CC(=O)Nc1nc2cc(-c3nn(C(C)C)c4ncnc(N)c34)ccc2o1 [Compound D]	–	–	–	–	–	–	–	–	–	–	–	–	–	–	–	–
